Reference: the supplement of paper PMC10307832

What was measured:
Test in all cases: relative viability (nuclei count vs DMSO), 5 days (fraction); higher = more cells survive
NCI-H1755 = system: NCI-H1755
Procedure, shortened: (§1)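 After 5 days of treatment, lung cancer cells in 1536-well plates were fixed and stained in a single step (final 0.05% Triton X-100, 1% formaldehyde, 1 ug/ml Hoechst) and their nuclei counted on 4× images. Treatment had been applied by pin tool the day after seeding as one drug alone or as a fixed anchor-drug dose with five library-drug doses (not always all listed) in √10 steps. Relative viability is the nuclei count of treated wells divided by that of vehicle wells, and values are medians of duplicate plates.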

NCI-H1395 = system: NCI-H1395
Procedure, shortened: as §1

LCLC-103H = system: LCLC-103H
Procedure, shortened: as §1

HCC-15 = system: HCC-15
Procedure, shortened: as §1

NCI-H1648 = system: NCI-H1648
Procedure, shortened: as §1

UMC-11 = system: UMC-11
Procedure, shortened: as §1

HCC-44 = system: HCC-44
Procedure, shortened: as §1

EKVX = system: EKVX
Procedure, shortened: as §1

SMILES | relative viability (NCI-H1755; first compound 0.04 µM) | relative viability (NCI-H1755; first compound 0.1265 µM) | relative viability (NCI-H1755; first compound 0.4 µM) | relative viability (NCI-H1755; first compound 1.265 µM) | relative viability (NCI-H1755; first compound 4 µM) | relative viability (NCI-H1395; first compound 0.04 µM) | relative viability (NCI-H1395; first compound 0.1265 µM) | relative viability (NCI-H1395; first compound 0.4 µM) | relative viability (NCI-H1395; first compound 1.265 µM) | relative viability (NCI-H1395; first compound 4 µM) | relative viability (LCLC-103H; first compound 0.04 µM) | relative viability (LCLC-103H; first compound 0.1265 µM) | relative viability (LCLC-103H; first compound 0.4 µM) | relative viability (LCLC-103H; first compound 1.265 µM) | relative viability (LCLC-103H; first compound 4 µM) | relative viability (HCC-15; first compound 0.04 µM) | relative viability (HCC-15; first compound 0.1265 µM) | relative viability (HCC-15; first compound 0.4 µM) | relative viability (HCC-15; first compound 1.265 µM) | relative viability (HCC-15; first compound 4 µM) | relative viability (NCI-H1648; first compound 0.04 µM) | relative viability (NCI-H1648; first compound 0.1265 µM) | relative viability (NCI-H1648; first compound 0.4 µM) | relative viability (NCI-H1648; first compound 1.265 µM) | relative viability (NCI-H1648; first compound 4 µM) | relative viability (UMC-11; first compound 0.04 µM) | relative viability (UMC-11; first compound 0.1265 µM) | relative viability (UMC-11; first compound 0.4 µM) | relative viability (UMC-11; first compound 1.265 µM) | relative viability (UMC-11; first compound 4 µM) | relative viability (HCC-44; first compound 0.04 µM) | relative viability (HCC-44; first compound 0.1265 µM) | relative viability (HCC-44; first compound 0.4 µM) | relative viability (HCC-44; first compound 1.265 µM) | relative viability (HCC-44; first compound 4 µM) | relative viability (EKVX; first compound 0.04 µM) | relative viability (EKVX; first compound 0.1265 µM) | relative viability (EKVX; first compound 0.4 µM) | relative viability (EKVX; first compound 1.265 µM) | relative viability (EKVX; first compound 4 µM)
Cc1sc2c(c1C)C(c1ccc(Cl)cc1)=N[C@@H](CC(=O)OC(C)(C)C)c1nnc(C)n1-2 [JQ1] + CC(=O)c1c(C)c2cnc(Nc3ccc(N4CCNCC4)cn3)nc2n(C2CCCC2)c1=O [Palbociclib] (partner 0.5 µM) | 0.434 | 0.426 | 0.416 | 0.388 | 0.353 | 0.591 | 0.556 | 0.602 | 0.443 | 0.395 | 0.46 | 0.438 | 0.42 | 0.419 | 0.328 | 0.648 | 0.585 | 0.64 | 0.561 | 0.395 | 0.259 | 0.303 | 0.332 | 0.358 | 0.309 | 0.292 | 0.226 | 0.227 | 0.257 | 0.184 | 0.96 | 0.942 | 1.11 | 0.978 | 0.728 | 0.429 | 0.34 | 0.372 | 0.368 | 0.314
Cc1sc2c(c1C)C(c1ccc(Cl)cc1)=N[C@@H](CC(=O)OC(C)(C)C)c1nnc(C)n1-2 [JQ1] + Nc1nc2[nH]cc(CCc3ccc(C(=O)N[C@@H](CCC(=O)O)C(=O)O)cc3)c2c(=O)[nH]1 [Pemetrexed] (partner 0.2 µM) | 0.444 | 0.444 | 0.387 | 0.323 | 0.324 | 0.911 | 0.737 | 0.797 | 0.496 | 0.343 | 0.44 | 0.385 | 0.393 | 0.359 | 0.437 | 0.238 | 0.224 | 0.19 | 0.182 | 0.199 | 0.726 | 0.817 | 0.683 | 0.54 | 0.258 | 0.73 | 0.584 | 0.352 | 0.254 | 0.193 | 0.59 | 0.617 | 0.692 | 0.58 | 0.444 | 0.351 | 0.396 | 0.304 | 0.362 | 0.264
